# Activity calls are given as the source filed them. No cut-off for these calls is given here.
# Assays:
# Mus musculus [1] = test: Anti-VaD activity against UCCAO-induced spatial memory deficient C57BL/6J mouse model assessed as improvement in spatial learning and memory by measuring increase in latency time at 1 mg/kg, po administered for 21 days by passive avoidance test; format: functional, organism-based; conditions: time 21.0 day
# Mus musculus [2] = test: Anti-VaD activity against UCCAO-induced spatial memory deficient C57BL/6J mouse model assessed as improvement in spatial learning and memory by measuring increased the frequency of platform site crossing at 1 mg/kg, po administered for 21 days by Morris water maze test; format: functional, organism-based; conditions: time 21.0 day
# Mus musculus [3] = test: Anti-VaD activity against UCCAO-induced spatial memory deficient C57BL/6J mouse model assessed as improvement in spatial learning and memory by measuring reduction in escape latency at 1 mg/kg, po administered for 21 days by Morris water maze test; format: functional, organism-based; conditions: time 21.0 day
# Mus musculus [4] = test: Anti-VaD activity against UCCAO-induced spatial memory deficient C57BL/6J mouse model assessed as improvement in spatial learning and memory by measuring decrease in error rate at 1 mg/kg, po administered for 21 days by passive avoidance test; format: functional, organism-based; conditions: time 21.0 day
# Mus musculus [5] = test: Anti-VaD activity against UCCAO-induced spatial memory deficient C57BL/6J mouse model assessed as improvement in spatial learning and memory by measuring increased the residence time in the platform area at 1 mg/kg, po administered for 21 days by Morris water maze test; format: functional, organism-based; conditions: time 21.0 day
# [6] = molecular target: T1, High affinity cAMP-specific and IBMX-insensitive 3',5'-cyclic phosphodiesterase 8A (Homo sapiens, UniProt O60658); test: Inhibition of PDE8A1 (480 to 820 residues) (unknown origin) expressed in Escherichia coli BL21 using [3H]-cAMP substrate at 1 uM incubated for 15 mins by liquid scintillation counting method relative to control
# T1 sequence (O60658 whole entry, the tested form may be a part): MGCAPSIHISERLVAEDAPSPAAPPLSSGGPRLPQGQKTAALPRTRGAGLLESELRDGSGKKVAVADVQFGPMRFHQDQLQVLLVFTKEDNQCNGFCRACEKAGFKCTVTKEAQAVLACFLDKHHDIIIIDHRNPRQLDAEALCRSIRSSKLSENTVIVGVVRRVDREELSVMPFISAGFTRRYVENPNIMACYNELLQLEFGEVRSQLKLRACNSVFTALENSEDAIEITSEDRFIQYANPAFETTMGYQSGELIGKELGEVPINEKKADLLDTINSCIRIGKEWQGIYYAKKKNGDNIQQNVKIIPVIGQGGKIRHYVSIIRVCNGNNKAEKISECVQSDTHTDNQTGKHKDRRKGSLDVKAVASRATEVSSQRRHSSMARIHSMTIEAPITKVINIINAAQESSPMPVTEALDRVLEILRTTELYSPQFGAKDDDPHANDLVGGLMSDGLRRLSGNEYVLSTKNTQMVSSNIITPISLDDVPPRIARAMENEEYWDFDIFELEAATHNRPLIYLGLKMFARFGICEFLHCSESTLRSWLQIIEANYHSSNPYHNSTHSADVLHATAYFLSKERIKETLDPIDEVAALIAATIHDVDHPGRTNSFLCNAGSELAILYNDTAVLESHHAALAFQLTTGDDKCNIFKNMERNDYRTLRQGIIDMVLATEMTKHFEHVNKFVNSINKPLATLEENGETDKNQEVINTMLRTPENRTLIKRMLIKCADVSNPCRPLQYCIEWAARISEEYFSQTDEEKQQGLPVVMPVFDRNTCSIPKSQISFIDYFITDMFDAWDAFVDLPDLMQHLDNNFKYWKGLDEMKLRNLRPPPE
# [7] = Cmax in Sprague-Dawley rat at 2.5 mg/kg, iv measured upto 24 hrs by LC-MS/MS analysis; format: ADME, organism-based; design: route intravenous, dose 2.5 mg/kg, time <=24; conditions: in vivo
# Cytochrome P450 2D6 = Cytochrome P450 2D6 (Homo sapiens, UniProt P10635); test: Inhibition of CYP2D6 in human liver microsomes in presence of NADPH; format: ADME
# Sequence of Cytochrome P450 2D6 (P10635 whole entry): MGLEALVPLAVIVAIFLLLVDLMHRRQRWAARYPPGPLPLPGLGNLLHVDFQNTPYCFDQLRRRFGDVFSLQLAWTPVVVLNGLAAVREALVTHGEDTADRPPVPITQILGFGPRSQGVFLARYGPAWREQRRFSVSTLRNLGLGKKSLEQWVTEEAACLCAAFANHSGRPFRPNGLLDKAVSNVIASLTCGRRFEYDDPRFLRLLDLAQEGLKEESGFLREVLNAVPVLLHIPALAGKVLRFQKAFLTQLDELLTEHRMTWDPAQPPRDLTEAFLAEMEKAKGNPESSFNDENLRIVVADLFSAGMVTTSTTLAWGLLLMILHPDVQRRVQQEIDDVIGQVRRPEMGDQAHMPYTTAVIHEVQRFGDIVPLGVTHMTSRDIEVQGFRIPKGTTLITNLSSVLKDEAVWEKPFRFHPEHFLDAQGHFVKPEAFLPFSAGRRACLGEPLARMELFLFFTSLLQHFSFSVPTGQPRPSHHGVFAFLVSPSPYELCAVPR
# [8] = Oral bioavailability in Sprague-Dawley rat at 10 mg/kg measured upto 24 hrs by LC-MS/MS analysis; format: ADME, organism-based; conditions: in vivo
# [9] = AUC (0 to t) in Sprague-Dawley rat at 10 mg/kg, po measured upto 24 hrs by LC-MS/MS analysis; format: ADME, organism-based; design: route oral, dose 10 mg/kg, time <=24; conditions: in vivo
# [10] = molecular target: Dual 3',5'-cyclic-AMP and -GMP phosphodiesterase 11A (Homo sapiens, UniProt Q9HCR9); test: Inhibition of PDE11A (588-911 residues) (unknown origin) expressed in Escherichia coli BL21 using [3H]-cAMP substrate incubated for 15 mins by liquid scintillation counting method
# Mus musculus [11] = test: Anti-VaD activity against UCCAO-induced spatial memory deficient C57BL/6J mouse model assessed as improvement in spatial learning and memory by measuring increased the frequency of platform site crossing at 3 mg/kg, po administered for 21 days by Morris water maze test; format: functional, organism-based; conditions: time 21.0 day
# [12] = AUC (0 to infinity) in Sprague-Dawley rat at 2.5 mg/kg, iv measured upto 24 hrs by LC-MS/MS analysis; format: ADME, organism-based; design: route intravenous, dose 2.5 mg/kg, time <=24; conditions: in vivo
# Mus musculus [13] = test: Anti-VaD activity against UCCAO-induced spatial memory deficient C57BL/6J mouse model assessed as improvement in spatial learning and memory by measuring increased the residence time in the platform area at 3 mg/kg, po administered for 21 days by Morris water maze test; format: functional, organism-based; conditions: time 21.0 day
# [14] = AUC (0 to t) in Sprague-Dawley rat at 2.5 mg/kg, iv measured upto 24 hrs by LC-MS/MS analysis; format: ADME, organism-based; design: route intravenous, dose 2.5 mg/kg, time <=24; conditions: in vivo
# [15] = molecular target: High affinity cGMP-specific 3',5'-cyclic phosphodiesterase 9A (Homo sapiens, UniProt O76083); test: Inhibition of PDE9A2 (181-506 residues) (unknown origin) expressed in Escherichia coli BL21 using [3H]-cAMP substrate incubated for 15 mins by liquid scintillation counting method
# Sequence of High affinity cGMP-specific 3',5'-cyclic phosphodiesterase 9A (O76083 whole entry, the tested form may be a part): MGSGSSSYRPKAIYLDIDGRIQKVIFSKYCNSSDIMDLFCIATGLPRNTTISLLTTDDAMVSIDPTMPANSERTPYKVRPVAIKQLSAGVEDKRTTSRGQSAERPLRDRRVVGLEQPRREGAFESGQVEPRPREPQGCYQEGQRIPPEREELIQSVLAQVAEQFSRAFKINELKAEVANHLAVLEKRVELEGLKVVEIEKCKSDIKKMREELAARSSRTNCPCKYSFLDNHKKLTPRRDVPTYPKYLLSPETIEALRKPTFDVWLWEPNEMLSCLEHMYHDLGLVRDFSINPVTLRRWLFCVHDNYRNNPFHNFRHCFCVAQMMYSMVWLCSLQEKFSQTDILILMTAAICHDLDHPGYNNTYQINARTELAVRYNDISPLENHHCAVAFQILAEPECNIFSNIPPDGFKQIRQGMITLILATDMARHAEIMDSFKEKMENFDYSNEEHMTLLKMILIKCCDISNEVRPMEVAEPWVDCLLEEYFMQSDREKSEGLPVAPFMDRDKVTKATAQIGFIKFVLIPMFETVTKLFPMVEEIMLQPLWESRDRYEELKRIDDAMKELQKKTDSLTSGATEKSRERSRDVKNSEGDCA
# [16] = molecular target: cGMP-inhibited 3',5'-cyclic phosphodiesterase 3A (Homo sapiens, UniProt Q14432); test: Inhibition of PDE3A (679-1087 residues) (unknown origin) expressed in Escherichia coli BL21 using [3H]-cAMP substrate incubated for 15 mins by liquid scintillation counting method
# [17] = Inhibition of PDE5A1 (535-860 residues) (unknown origin) expressed in Escherichia coli BL21 using [3H]-cAMP substrate incubated for 15 mins by liquid scintillation counting method; design: species or system Homo sapiens
# [18] = Tmax in Sprague-Dawley rat at 10 mg/kg, po measured upto 24 hrs by LC-MS/MS analysis; format: ADME, organism-based; conditions: in vivo
# [19] = Half life in Sprague-Dawley rat at 2.5 mg/kg, iv measured upto 24 hrs by LC-MS/MS analysis; format: ADME, organism-based; conditions: in vivo
# [20] = molecular target: Dual specificity calcium/calmodulin-dependent 3',5'-cyclic nucleotide phosphodiesterase 1B (Homo sapiens, UniProt Q01064); test: Inhibition of PDE1B (146-506 residues) (unknown origin) expressed in Escherichia coli BL21 using [3H]-cAMP substrate incubated for 15 mins by liquid scintillation counting method
# Sequence of Dual specificity calcium/calmodulin-dependent 3',5'-cyclic nucleotide phosphodiesterase 1B (Q01064 whole entry, the tested form may be a part): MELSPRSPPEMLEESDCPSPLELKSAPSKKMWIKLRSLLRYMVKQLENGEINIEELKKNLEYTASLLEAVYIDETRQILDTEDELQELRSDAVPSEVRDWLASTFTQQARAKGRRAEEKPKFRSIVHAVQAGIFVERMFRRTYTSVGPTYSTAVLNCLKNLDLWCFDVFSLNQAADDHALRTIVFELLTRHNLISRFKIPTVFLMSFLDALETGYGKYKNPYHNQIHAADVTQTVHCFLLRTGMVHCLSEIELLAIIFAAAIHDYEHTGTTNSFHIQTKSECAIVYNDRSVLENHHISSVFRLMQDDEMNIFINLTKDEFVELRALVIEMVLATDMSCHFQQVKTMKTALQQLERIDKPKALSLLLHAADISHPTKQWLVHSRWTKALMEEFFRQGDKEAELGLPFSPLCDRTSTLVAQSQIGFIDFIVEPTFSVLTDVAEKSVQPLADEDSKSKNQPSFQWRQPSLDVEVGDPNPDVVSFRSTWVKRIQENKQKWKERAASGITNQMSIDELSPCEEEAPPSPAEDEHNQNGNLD
# [21] = MRT (0 to t) in Sprague-Dawley rat at 2.5 mg/kg, iv measured upto 24 hrs by LC-MS/MS analysis; format: ADME, organism-based; conditions: in vivo
# [22] = AUC (0 to infinity) in Sprague-Dawley rat at 10 mg/kg, po measured upto 24 hrs by LC-MS/MS analysis; format: ADME, organism-based; design: route oral, dose 10 mg/kg, time <=24; conditions: in vivo
# [23] = Dissociation constant, pKa of the compound; format: physicochemical
# [24] = Half life in Sprague-Dawley rat at 10 mg/kg, po measured upto 24 hrs by LC-MS/MS analysis; format: ADME, organism-based; conditions: in vivo
# Mus musculus [25] = test: Anti-VaD activity against UCCAO-induced spatial memory deficient C57BL/6J mouse model assessed as improvement in spatial learning and memory by measuring reduction in escape latency at 3 mg/kg, po administered for 21 days by Morris water maze test; format: functional, organism-based; conditions: time 21.0 day
# [26] = Effective permeability of compound by PAMPA-BBB assay; format: ADME; conditions: read-out: permeability
# [27] = molecular target: High affinity 3',5'-cyclic-AMP phosphodiesterase 7A (Homo sapiens, UniProt Q13946); test: Inhibition of PDE7A1 (130-482 residues) (unknown origin) expressed in Escherichia coli BL21 using [3H]-cAMP substrate incubated for 15 mins by liquid scintillation counting method
# Sequence of High affinity 3',5'-cyclic-AMP phosphodiesterase 7A (Q13946 whole entry, the tested form may be a part): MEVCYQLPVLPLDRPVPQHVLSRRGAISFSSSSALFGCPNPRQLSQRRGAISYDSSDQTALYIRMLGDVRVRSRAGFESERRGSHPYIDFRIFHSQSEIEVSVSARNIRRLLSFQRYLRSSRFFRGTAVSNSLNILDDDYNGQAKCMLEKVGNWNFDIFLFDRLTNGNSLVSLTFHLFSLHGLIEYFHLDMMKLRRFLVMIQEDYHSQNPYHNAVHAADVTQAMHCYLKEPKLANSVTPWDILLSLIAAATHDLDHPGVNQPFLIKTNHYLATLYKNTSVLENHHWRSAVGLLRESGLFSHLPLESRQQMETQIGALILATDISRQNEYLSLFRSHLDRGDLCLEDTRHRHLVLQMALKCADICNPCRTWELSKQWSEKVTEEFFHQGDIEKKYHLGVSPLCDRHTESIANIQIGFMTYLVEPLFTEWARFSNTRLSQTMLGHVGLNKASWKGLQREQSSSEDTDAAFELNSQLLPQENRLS
# [28] = Cmax in Sprague-Dawley rat at 10 mg/kg, po measured upto 24 hrs by LC-MS/MS analysis; format: ADME, organism-based; design: route oral, dose 10 mg/kg, time <=24; conditions: in vivo
# [29] = Protein binding in human plasma; format: ADME, cell-free; conditions: read-out: PPB (converted)
# [30] = Aqueous solubility of compound at pH 7.3 by HPLC analysis; format: physicochemical; conditions: aqueous medium
# [31] = molecular target: Voltage-gated inwardly rectifying potassium channel KCNH2 (Homo sapiens, UniProt Q12809); test: Inhibition of human ERG expressed in CHO cells by patch clamp method; format: cell-based
# Cytochrome P450 1A2 = molecular target: T2, Cytochrome P450 1A2 (Homo sapiens, UniProt P05177); test: Inhibition of CYP1A2 in human liver microsomes in presence of NADPH; format: ADME
# T2 sequence (P05177 whole entry): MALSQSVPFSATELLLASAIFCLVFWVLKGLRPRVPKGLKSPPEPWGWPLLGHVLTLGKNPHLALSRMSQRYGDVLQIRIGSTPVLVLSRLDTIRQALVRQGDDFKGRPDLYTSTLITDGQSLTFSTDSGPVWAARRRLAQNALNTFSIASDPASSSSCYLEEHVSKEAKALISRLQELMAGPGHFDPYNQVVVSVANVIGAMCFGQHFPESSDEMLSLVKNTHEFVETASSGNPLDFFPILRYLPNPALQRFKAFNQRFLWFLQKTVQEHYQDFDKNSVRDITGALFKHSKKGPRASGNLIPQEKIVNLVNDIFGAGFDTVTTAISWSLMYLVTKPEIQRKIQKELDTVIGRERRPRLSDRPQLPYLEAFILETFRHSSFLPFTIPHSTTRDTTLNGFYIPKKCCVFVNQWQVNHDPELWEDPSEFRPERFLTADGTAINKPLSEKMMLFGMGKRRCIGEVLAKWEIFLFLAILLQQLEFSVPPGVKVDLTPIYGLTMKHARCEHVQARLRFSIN
# Cytochrome P450 2C19 = Cytochrome P450 2C19 (Homo sapiens, UniProt P33261); test: Inhibition of CYP2C19 in human liver microsomes in presence of NADPH; format: ADME
# Sequence of Cytochrome P450 2C19 (P33261 whole entry): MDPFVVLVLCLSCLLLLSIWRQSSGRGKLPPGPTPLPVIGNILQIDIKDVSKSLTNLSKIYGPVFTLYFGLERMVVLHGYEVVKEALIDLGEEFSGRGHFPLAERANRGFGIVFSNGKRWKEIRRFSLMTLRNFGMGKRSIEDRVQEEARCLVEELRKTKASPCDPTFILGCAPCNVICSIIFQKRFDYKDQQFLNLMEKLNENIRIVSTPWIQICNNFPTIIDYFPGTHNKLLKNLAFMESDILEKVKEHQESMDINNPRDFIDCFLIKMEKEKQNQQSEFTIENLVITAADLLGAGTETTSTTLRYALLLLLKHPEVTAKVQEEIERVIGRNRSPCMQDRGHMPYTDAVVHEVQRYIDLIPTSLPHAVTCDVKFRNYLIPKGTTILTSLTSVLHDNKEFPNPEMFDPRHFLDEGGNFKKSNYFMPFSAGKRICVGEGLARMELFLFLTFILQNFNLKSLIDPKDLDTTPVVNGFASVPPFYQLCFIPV
# Mus musculus [32] = test: Anti-VaD activity against UCCAO-induced spatial memory deficient C57BL/6J mouse model assessed as improvement in spatial learning and memory by measuring increase in latency time at 3 mg/kg, po administered for 21 days by passive avoidance test; format: functional, organism-based; conditions: time 21.0 day
# Mus musculus [33] = test: Anti-VaD activity against UCCAO-induced spatial memory deficient C57BL/6J mouse model assessed as improvement in spatial learning and memory by measuring decrease in error rate at 3 mg/kg, po administered for 21 days by passive avoidance test; format: functional, organism-based; conditions: time 21.0 day
# Cytochrome P450 2C9 = Cytochrome P450 2C9 (Homo sapiens, UniProt P11712); test: Inhibition of CYP2C9 in human liver microsomes in presence of NADPH; format: ADME
# Sequence of Cytochrome P450 2C9 (P11712 whole entry): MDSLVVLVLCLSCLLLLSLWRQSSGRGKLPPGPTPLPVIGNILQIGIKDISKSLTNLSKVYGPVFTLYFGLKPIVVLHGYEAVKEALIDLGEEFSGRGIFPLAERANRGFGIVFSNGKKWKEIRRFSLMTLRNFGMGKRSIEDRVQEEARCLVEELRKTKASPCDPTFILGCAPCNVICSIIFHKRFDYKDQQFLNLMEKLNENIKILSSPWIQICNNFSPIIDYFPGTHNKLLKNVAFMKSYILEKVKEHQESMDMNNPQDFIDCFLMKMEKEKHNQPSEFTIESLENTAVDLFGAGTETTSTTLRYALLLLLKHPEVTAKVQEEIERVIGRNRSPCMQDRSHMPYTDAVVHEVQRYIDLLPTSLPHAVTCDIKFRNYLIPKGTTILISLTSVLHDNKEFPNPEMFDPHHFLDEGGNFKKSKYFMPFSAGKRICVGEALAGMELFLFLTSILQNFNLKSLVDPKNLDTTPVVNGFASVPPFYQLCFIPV
# [34] = Lipophilicity, log P of the compound; format: physicochemical; conditions: octanol/water
# Cytochrome P450 3A4 = Cytochrome P450 3A4 (Homo sapiens, UniProt P08684); test: Inhibition of CYP3A4 in human liver microsomes using midazolam as substrate in presence of NADPH; format: ADME
# Sequence of Cytochrome P450 3A4 (P08684 whole entry): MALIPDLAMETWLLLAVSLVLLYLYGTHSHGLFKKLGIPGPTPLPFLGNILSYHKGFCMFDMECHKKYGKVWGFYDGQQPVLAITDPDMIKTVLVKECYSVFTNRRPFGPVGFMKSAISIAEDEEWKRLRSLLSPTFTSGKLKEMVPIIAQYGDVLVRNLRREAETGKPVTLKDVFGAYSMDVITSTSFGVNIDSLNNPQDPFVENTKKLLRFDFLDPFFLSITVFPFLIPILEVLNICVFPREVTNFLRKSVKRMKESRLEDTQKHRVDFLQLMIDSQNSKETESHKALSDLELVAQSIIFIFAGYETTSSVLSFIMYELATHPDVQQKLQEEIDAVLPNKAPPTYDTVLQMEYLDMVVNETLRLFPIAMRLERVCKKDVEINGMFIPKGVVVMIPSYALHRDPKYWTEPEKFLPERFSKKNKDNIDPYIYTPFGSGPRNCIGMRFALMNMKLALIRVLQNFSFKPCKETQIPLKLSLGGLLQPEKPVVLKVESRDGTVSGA
# [35] = MRT (0 to t) in Sprague-Dawley rat at 10 mg/kg, po measured upto 24 hrs by LC-MS/MS analysis; format: ADME, organism-based; conditions: in vivo
# [36] = Tmax in Sprague-Dawley rat at 2.5 mg/kg, iv measured upto 24 hrs by LC-MS/MS analysis; format: ADME, organism-based; conditions: in vivo
# [37] = molecular target: T1, High affinity cAMP-specific and IBMX-insensitive 3',5'-cyclic phosphodiesterase 8A; test: Inhibition of PDE8A1 (480 to 820 residues) (unknown origin) expressed in Escherichia coli BL21 using [3H]-cAMP substrate incubated for 15 mins by liquid scintillation counting method
smiles,measurement,setting,value
COc1cc2c(cc1OC)C(=O)C(CC1CCN(Cc3ccccc3)CC1)C2 (stereo not drawn),Activity,Mus musculus [1],Active
same,Activity,Mus musculus [2],Active
same,Activity,Mus musculus [3],Active
same,Activity,Mus musculus [4],Active
same,Activity,Mus musculus [5],Active
Cc1cccc(Cn2cnc3c(N)nc(Cl)nc32)n1,inhibition,[6],14%
C[C@@H](c1cc(OCC(F)F)ccn1)n1cnc2c(N)nc(Cl)nc21,Cmax,[7],2190 ng/mL
same,IC50,Cytochrome P450 2D6,> 25 µM
same,bioavailability,[8],47%
same,AUC(0-t) at 24 h,[9],17500 ng·h/mL
same,IC50,[10],> 10 µM
same,Activity,Mus musculus [11],Active
same,AUC(0-inf),[12],9420 ng·h/mL
same,Activity,Mus musculus [13],Active
same,AUC(0-t) at 24 h,[14],9410 ng·h/mL
same,IC50,[15],> 10 µM
same,IC50,[16],> 10 µM
same,IC50,[17],> 10 µM
same,Tmax,[18],4 h
same,half-life,[19],142 min
same,IC50,[20],> 10 µM
same,MRT last at 24 h,[21],4.48 h
same,AUC(0-inf),[22],17600 ng·h/mL
same,pKa,[23],3.69
same,half-life,[24],169 min
same,Activity,Mus musculus [25],Active
same,Papp,[26],6 ×10⁻⁶ cm/s
same,IC50,[27],> 10 µM
same,Cmax,[28],1940 ng/mL
same,fraction unbound,[29],0.22
same,solubility,[30],108 µg/mL
same,IC50,[31],18 µM
same,IC50,Cytochrome P450 1A2,> 25 µM
same,IC50,Cytochrome P450 2C19,> 25 µM
same,Activity,Mus musculus [32],Active
same,Activity,Mus musculus [33],Active
same,IC50,Cytochrome P450 2C9,> 25 µM
same,logP,[34],3.84
same,IC50,Cytochrome P450 3A4,> 25 µM
same,MRT last at 24 h,[35],7.2 h
same,Tmax,[36],8.4 min
Nc1nc(Cl)nc2c1ncn2Cc1ccccn1,inhibition,[6],24%
Nc1nc(Cl)nc2c1ncn2Cc1cc(OCC(F)F)ccn1,IC50,[37],360 nM
